Source: US20160159814A1, “GLYCINE TRANSPORTER INHIBITOR” (TAISHO PHARMACEUTICAL CO., LTD., priority 2013, published 2016)

target: T1, human type 1 glycine transporter (GlyT1) (Homo sapiens, UniProt P48067); test: Glycine uptake inhibition experiment ([3H] glycine uptake in T98G cells expressing GlyT1); assay type: cell-based; conditions: not given
T1 construct: T98G cells (glioma cells) expressing human type 1 glycine transporter (GlyT1) were used; endogenous in cells; host or cells: T98G cells (human glioma cells)
T1 sequence (P48067 1-706): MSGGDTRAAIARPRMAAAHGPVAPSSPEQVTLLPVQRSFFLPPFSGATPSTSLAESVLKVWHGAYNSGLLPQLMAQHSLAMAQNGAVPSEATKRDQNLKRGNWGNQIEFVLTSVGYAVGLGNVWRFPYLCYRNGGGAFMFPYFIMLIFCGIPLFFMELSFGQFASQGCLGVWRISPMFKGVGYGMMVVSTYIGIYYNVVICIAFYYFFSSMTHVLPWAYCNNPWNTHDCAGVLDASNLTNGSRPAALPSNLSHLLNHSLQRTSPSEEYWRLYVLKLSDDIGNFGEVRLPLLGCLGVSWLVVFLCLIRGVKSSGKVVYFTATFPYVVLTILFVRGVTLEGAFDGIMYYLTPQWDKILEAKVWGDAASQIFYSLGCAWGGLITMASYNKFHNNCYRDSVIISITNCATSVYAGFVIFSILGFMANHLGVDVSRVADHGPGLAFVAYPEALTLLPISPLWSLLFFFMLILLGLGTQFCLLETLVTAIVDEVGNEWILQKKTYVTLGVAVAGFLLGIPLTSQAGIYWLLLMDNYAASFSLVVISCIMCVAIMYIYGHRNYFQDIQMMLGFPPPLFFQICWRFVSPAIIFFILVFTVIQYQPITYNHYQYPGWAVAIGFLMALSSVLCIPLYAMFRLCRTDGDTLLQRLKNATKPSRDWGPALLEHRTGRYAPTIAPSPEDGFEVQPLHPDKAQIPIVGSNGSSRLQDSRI
Method: Glycine Uptake Inhibition Experiment
A glycine uptake experiment was conducted in accordance with the method published in Neuron, 8, 927-935, 1992. In the experiment, T98G cells (glioma cells) expressing human type 1 glycine transporter (GlyT1) were used. The T98G cells were seeded in a 96-well plate at 2.0×10^4 cells/well and cultured overnight in a CO2 incubator. The test substance was dissolved in a 100% DMSO solution and then dissolved in a 10 mM HEPES buffer solution (pH 7.4) containing 150 mM sodium chloride, 1 mM calcium chloride, 5 mM potassium chloride, 1 mM magnesium chloride, 10 mM glucose and 0.2% bovine serum albumin. After removing the cell culture medium, the test substance was subjected to a 10-min pretreatment. Subsequently, the test substance and [^3H] glycine (final concentration: 250 nM) were added to the cells and reaction was performed at room temperature for 15 minutes. After the end of the reaction, the extracellular fluid was aspirated with a manifold to remove excess labeled glycine present outside the cells, and then the cells were lysed with a 0.5 M aqueous sodium hydroxide solution. The glycine content in the cells was determined by measuring the radioactivity in the cell lysate with a liquid scintillation counter. Glycine uptake in the presence of 10 μM ALX5407 was defined as non-specific uptake, and the value calculated by subtracting the amount of the non-specific uptake from the total uptake in the absence of 10 μM ALX5407 was defined as specific uptake. In addition, glycine uptake inhibitory activity (IC50 value) was calculated from an inhibition curve at the concentrations of each test substance ranging from 10^−9 to 10^−5 M. It should be noted that ALX5407 is an HCl salt of N-[(3R)-3-([1,1′-biphenyl]-4-yloxy)-3-(4-fluorophenyl)propyl]-N-methylglycine.

SMILES	IC50 [µM]
C[C@H](O)c1cccc2c1C(F)(F)C(=O)N2Cc1cncc(C2CC2)c1 [Compound 174, 1-[(5-cyclopropylpyridin-3-yl)methyl]-3,3-difluoro-4-[(1S)-1-hydroxyethyl]-1,3-dihydro-2H-indol-2-one]	0.095
C[C@H](O)c1cccc2c1C(F)(F)C(=O)N2Cc1ncccc1F [Compound 208, 3,3-difluoro-1-[(3-fluoropyridin-2-yl)methyl]-4-[(1S)-1-hydroxyethyl]-1,3-dihydro-2H-indol-2-one]	0.15
C[C@H](O)c1cccc2c1C(F)(F)C(=O)N2Cc1ccc(Br)nc1 [Compound 190, 1-[(6-bromopyridin-3-yl)methyl]-3,3-difluoro-4-[(1S)-1-hydroxyethyl]-1,3-dehydro-2H-indol-2-one]	0.051
C[C@H](O)c1cccc2c1C(F)(F)C(=O)N2Cc1cncc(OC(F)F)c1 [Compound 189, 1-{[5-(difluoromethoxy)pyridin-3-yl]methyl}-3,3-difluoro-4[(1S)-1-hydroxyethyl)-1,3-dihydro-2H-indol-2-one]	0.079
C[C@H](O)c1cccc2c1C(F)(F)C(=O)N2Cc1ncccc1Br [Compound 211, 1-[(3-bromopyridin-2-yl)methyl]-3,3-difluoro-4-[(1S)-1-hydroxyethyl]-1,3-dihydro-2H-indol-2-one]	0.085
C[C@H](O)c1cccc2c1C(F)(F)C(=O)N2Cc1cc(C#N)ncc1Cl [Compound 195, 5-chloro-4-({3,3-difluoro-4-[(1S)-1-hydroxyethyl]-2-oxo-2,3-dihydro-1H-indol-1-yl}methyl)pyridine-2-carbonitrile]	0.042
C[C@H](O)c1cccc2c1C(F)(F)C(=O)N2Cc1ccc(F)c(Br)n1 [Compound 229, 1-[(6-bromo-5-fluoropyridin-2-yl)methyl]-3,3-difluoro-4-[(1S)-1-hydroxyethyl)-1,3-dihydro-2H-indol-2-one]	0.0017
C[C@H](O)c1cccc2c1C(F)(F)C(=O)N2Cc1ccc(C#N)nc1 [Compound 201, 5-({3,3-difluoro-4-[(1S)-1-hydroxyethyl]-2-oxo-2,3-dihydro-1-indol-1-yl}methyl)pyridine-2-carbonitrile]	0.83
CCOc1ccc(CN2C(=O)C(F)(F)c3c(C(O)C(F)F)cccc32)cn1 (single isomer, unassigned) [Compound 278, 4-(2,2-difluoro-1-hydroxyethyl)-1-[(6-ethoxypyridin-3-yl)methyl]-3,3-difluoro-1,3-dehydro-2H-indol-2-one]	0.21

same assay, conditions: glycine uptake inhibition

SMILES	IC50 [µM]
CC(O)c1cccc2c1C(F)(F)C(=O)N2Cc1ccnc(C#N)c1 (centres unmarked) [Compound 28]	0.098
C[C@H](O)c1cccc2c1C(F)(F)C(=O)N2Cc1cc(Br)ccn1 [Compound 123, 1-[(4-bromopyridin-2-yl)methyl]-3,3-difluoro-4-[(1S)-1-hydroxyethyl]-1,3-dihydro-2H-indol-2-one]	0.022
C[C@H](O)c1cccc2c1C(F)(F)C(=O)N2Cc1nc2cc(F)ccc2o1 [Compound 92, 3,3-difluoro-1-[(5-fluoro-1,3-benzoxazol-2-yl)methyl]-4-[(1S)-1-hydroxyethyl]-1,3-dihydro-2H-indol-2-one]	0.069
C[C@H](O)c1cccc2c1C(F)(F)C(=O)N2Cc1ccc2nccnc2c1 [Compound 46, 3,3-difluoro-4-[(1S)-1-hydroxyethyl]-1-(quinoxalin-6-ylmethyl)-1,3-dihydro-2H-indol-2-one]	0.14
O=C1N(Cc2cncc(-n3nccn3)c2)c2cccc(C(O)C(F)F)c2C1(F)F (single isomer, unassigned) [Compound 148, 4-(2,2-difluoro-1-hydroxyethyl)-3,3-difluoro-1-{[5-(2H-1,2,3-triazol-2-yl)pyridin-3-yl]methyl}-1,3-dihydro-2H-indol-2-one]	0.039
O=C1N(Cc2ccnc(-n3nccn3)c2)c2cccc(C(O)C(F)F)c2C1(F)F (single isomer, unassigned) [Compound 147, 4-(2,2-difluoro-1-hydroxyethyl)-3,3-difluoro-1-{[2-(2H-1,2,3-triazol-2-yl)pyridin-4-yl]methyl}-1,3-dihydro-2H-indol-2-one]	0.36
C[C@H](O)c1cccc2c1C(F)(F)C(=O)N2Cc1cccc(C(F)F)n1 [Compound 82, 1-{[6-(difluoromethyl)pyridin-2-yl]methyl}-3,3-difluoro-4-[(1S)-1-hydroxyethyl]-1,3-dihydro-2H-indol-2-one]	0.044
C[C@H](O)c1cccc2c1C(F)(F)C(=O)N2Cc1cncc(F)c1 [Compound 63, 3,3-difluoro-1-[(5-fluoropyridin-3-yl)methyl]-4-[(1S)-1-hydroxyethyl]-1,3-dihydro-2H-indol-2-one]	0.076
C[C@H](O)c1cccc2c1C(F)(F)C(=O)N2Cc1c2ccccc2nn1C [Compound 93]	0.054
Cn1c(CN2C(=O)C(F)(F)c3c([C@@H](O)C(F)(F)F)cccc32)nc2ccccc2c1=O [Compound 37, 2-({3,3-difluoro-2-oxo-4-[(1R)-2,2,2-trifluoro-1-hydroxyethyl]-2,3-dihydro-1H-indol-1-yl}methyl)-3-methylquinazolin-4(3H)-one]	0.043
O=C1N(Cc2cccc(Cl)n2)c2cccc(C3(O)CCC3)c2C1(F)F [Compound 24, 1-[(6-chloropyridin-2-yl)methyl]-3,3-difluoro-4-(1-hydroxycyclobutyl)-1,3-dihydro-2H-indol-2-one]	5.9
C[C@H](O)c1cccc2c1C(F)(F)C(=O)N2Cc1nc2ccccc2o1 [Compound 81, 1-(1,3-benzoxazol-2-ylmethyl)-3,3-difluoro-4-[(1S)-1-hydroxyethyl]-1,3-dihydro-2H-indol-2-one]	0.03
O=C1N(Cc2cccc(Cl)n2)c2cccc(C(O)C(F)(F)F)c2C1(F)F (single isomer, unassigned) [Compound 8, 1-[(6-chloropyridin-2-yl)methyl]-3,3-difluoro-4-(2,2,2-trifluoro-1-hydroxyethyl)-1,3-dihydro-2H-indol-2-one]	0.8
O=C1N(Cc2cncc(Cl)c2)c2cccc(C(O)C(F)F)c2C1(F)F (single isomer, unassigned) [Compound 120, 1-[(5-chloropyridin-3-yl)methyl]-4-(2,2-difluoro-1-hydroxyethyl)-3,3-difluoro-1,3-dihydro-2H-indol-2-one]	0.057
C[C@H](O)c1cccc2c1C(F)(F)C(=O)N2Cc1ccc2cc[nH]c2n1 [Compound 115, 3,3-difluoro-4-[(1S)-1-hydroxyethyl]-1-(1H-pyrrolo[2,3-b]pyridin-6-ylmethyl)-1,3-dihydro-2H-indol-2-one]	0.098
C[C@H](O)c1cccc2c1C(F)(F)C(=O)N2Cc1ccc(C(F)(F)F)nc1 [Compound 118, 3,3-difluoro-4-[(1S)-1-hydroxyethyl]-1-{[6-(trifluoromethyl)pyridin-3-yl]methyl}-1,3-dihydro-2H-indol-2-one]	0.027
C[C@H](O)c1cccc2c1C(F)(F)C(=O)N2Cc1cncc(C(F)(F)F)c1 [Compound 121]	0.039

same assay, conditions: table section whose head prints (μm)

SMILES	IC50 [µM]
N#Cc1cc(CN2C(=O)C(F)(F)c3c(C(O)C(F)F)cccc32)cc(Cl)n1 (single isomer, unassigned) [Compound 264, 6-chloro-4-{[4-(2,2-difluoro-1-hydroxyethyl)-3,3-difluoro-2-oxo-2,3-dihydro-1H-indol-1-yl]methyl}pyridine-2-carbonitrile]	0.17
N#Cc1nccc(CN2C(=O)C(F)(F)c3c(C(O)C(F)F)cccc32)c1Cl (single isomer, unassigned) [Compound 267]	0.26
N#Cc1nc(CN2C(=O)C(F)(F)c3c(C(O)C(F)F)cccc32)ccc1C(F)(F)F (single isomer, unassigned) [Compound 270, 6-{[4-(2,2-difluoro-1-hydroxyethyl)-3,3-difluoro-2-oxo-2,3-dihydro-1H-indol-1-yl]methyl}-3-(trifluoromethyl) pyridine-2-carbonitrile]	0.0084
